According to paper PMC9161972 (Journal of Medical Virology, 2022):
Like-named read-outs stand apart in the source and are kept apart here. Where a SMILES comes first, the peptide text is derived from it. The star is where a group is joined. Cbz = O=C(OCc1ccccc1)*; CHN2 = [N-]=[N+]=C*; tBu = CC(C)(C)*

Key:
[1] = system: HIV/EBOV pseudovirus (Ebola virus Zaire Mayinga glycoprotein); assay: organism not typed; format: cell-based; details: for IC50: read-out: IC50 HIV/EBOV
[2] = system: HIV/MARV pseudovirus (Marburg virus Musoke glycoprotein); assay: organism not typed; format: cell-based; details: for IC50: read-out: IC50 HIV/MARV
[3] = system: HIV/MLAV pseudovirus (Měnglà virus glycoprotein); assay: organism not typed; format: cell-based; details: for IC50: read-out: IC50 HIV/MLAV
in vitro = details: human
[4] = system: HIV/VSV pseudovirus (control); format: cell-based, vesicular stomatitis virus
MLAV = details: cited from earlier work

NCCc1ccc(S(=O)(=O)F)cc1 [AEBSF]
inhibition of EBOV pseudovirus entry (in words) [1]: limited inhibition
IC50 [1]: 19.1 ± 0.58 µM
inhibition of MARV pseudovirus entry (in words) [2]: limited inhibition
IC50 [2]: 29 ± 1.7 µM
inhibition of MLAV pseudovirus entry (in words) [3]: unable to effectively inhibit
IC50 [3]: 36.7 ± 10.4 µM
CC50 (A549 cells): ~100 µM

CN1[C@@H]2CC[C@H]1C[C@@H](OC(c1ccccc1)c1ccccc1)C2 [Benztropine]
CC50 (in vitro): 54.5 ± 2 µM

CC(C)COCC(CN(Cc1ccccc1)c1ccccc1)N1CCCC1 (centres unmarked) [Bepridil]
IC50 ([1]; A549, 48 h): 3.27 ± 0.4 µM
IC50 ([2]; A549, 48 h): 7.37 ± 0.9 µM
IC50 ([3]; A549, 48 h): 9.74 ± 0.94 µM
CC50 (in vitro): 34.7 ± 4.6 µM

CCCNC(=O)[C@H]1O[C@@H]1C(=O)N[C@H](C(=O)N1CCC[C@H]1C(=O)O)[C@@H](C)CC [CA‐074]
IC50 [1]: 28.4 ± 6.56 µM
inhibition of MARV pseudovirus entry at 100 µM (in words) ([2]; at 100 µM): resistant
IC50 [2]: > 100 µM
inhibition of MLAV pseudovirus entry at 100 µM (in words) ([3]; at 100 µM): resistant
IC50 [3]: > 100 µM
inhibition of VSV pseudovirus entry at 100 µM (in words) [4]: resistant
CC50 (A549 cells): > 100 µM

CC(C)(C)Oc1ccc(C[C@H](NC(=O)[C@H](Cc2ccccc2)NC(=O)OCc2ccccc2)C(=O)C=[N+]=[N-])cc1 [Cathepsin L Inhibitor III] (Cbz-Phe-Tyr(tBu)-CHN2)
IC50 [1]: 0.75 ± 0.19 µM
IC50 [2]: 2.38 ± 0.4 µM
IC50 [3]: 7.14 ± 1.5 µM
inhibition of VSV pseudovirus entry at 100 µM (in words) [4]: no inhibition
CC50 (A549 cells): > 100 µM

CCCCOc1cc(C(=O)NCCN(CC)CC)c2ccccc2n1 [Dibucaine]
IC50 ([1]; A549, 48 h): 2.93 ± 1.04 µM
IC50 ([2]; A549, 48 h): 5.82 ± 0.37 µM
IC50 ([3]; A549, 48 h): 10.8 ± 1.68 µM
CC50 (in vitro): 51.3 ± 1.2 µM

CNCCC(Oc1ccc(C(F)(F)F)cc1)c1ccccc1 (centres unmarked) [Fluoxetine]
CC50 (in vitro): 28.7 ± 0.1 µM

CN(C)CCCN1c2ccccc2CCc2ccccc21 [Imipramine]
IC50 ([1]; A549, 48 h): 2 ± 0.65 µM
IC50 ([2]; A549, 48 h): 5.55 ± 1.12 µM
IC50 ([3]; A549, 48 h): 7.91 ± 0.81 µM
CC50 (in vitro): 76.3 ± 7.4 µM

CC(=O)N[C@@H](CC(C)C)C(=O)N[C@@H](CC(C)C)C(=O)N[C@H](C=O)CCCNC(=N)N [Leupeptin]
IC50 ([1]; A549, 48 h): 0.41 ± 0.04 µM
IC50 ([2]; A549, 48 h): 0.92 ± 0.27 µM
IC50 ([3]; A549, 48 h): 1.24 ± 0.29 µM
inhibition of VSV pseudovirus entry (in words) [4]: ineffective
CC50 (in vitro): > 100 µM

CC(C)[C@H](NC(=O)OCc1ccccc1)C(=O)N[C@H](C=O)Cc1ccccc1 [MDL‐28170] (Cbz-Val-Phe-aldehyde)
inhibition of EBOV pseudovirus entry (in words) [1]: can block
IC50 ([1]; A549, 48 h): 1.44 ± 0.2 µM
inhibition of MARV pseudovirus entry (in words) [2]: can block
IC50 ([2]; A549, 48 h): 1.69 ± 0.46 µM
inhibition of MLAV pseudovirus entry (in words) [3]: can block
IC50 ([3]; A549, 48 h): 9.46 ± 1.69 µM
CC50 (in vitro): > 100 µM

Fc1ccc([C@@H]2CCNC[C@H]2COc2ccc3c(c2)OCO3)cc1 [Paroxetine]
IC50 ([1]; A549, 48 h): 0.36 ± 0.4 µM
IC50 ([2]; A549, 48 h): 1.83 ± 0.66 µM
selectivity index (SI) with MLAV [3]: 5
IC50 ([3]; A549, 48 h): 4.88 ± 1.7 µM
CC50 (in vitro): 23.6 ± 2.5 µM

CN[C@H]1CC[C@@H](c2ccc(Cl)c(Cl)c2)c2ccccc21 [Sertraline]
CC50 (in vitro): 15 ± 0.9 µM

CN(C)CCOc1ccc(/C(=C(/CCCl)c2ccccc2)c2ccccc2)cc1 [Toremifene]
IC50 ([1]; A549, 48 h): 0.06 ± 0.05 µM
IC50 ([2]; A549, 48 h): 1.75 ± 0.86 µM
IC50 ([3]; A549, 48 h): 3.63 ± 0.72 µM
inhibition of MLAV (in words) (MLAV): inhibited MLAV
CC50 (in vitro): 25.3 ± 1.6 µM
